The record followed here is ChEMBL document CHEMBL1135719, “Structural basis of RasGRP binding to high-affinity PKC ligands” (J Med Chem, 2002).

Assay [1] deals with Protein kinase C delta type (Mus musculus, UniProt P28867). In words: Displacement of [3H]- PDBu from Protein kinase C delta C1b domain. A general note: In a radioligand displacement assay an active substance lowers the binding of a labelled ligand.
Assay [2] deals with T1, RAS guanyl-releasing protein 1 (Rattus norvegicus, UniProt Q9R1K8).
T1 sequence (Q9R1K8 whole entry): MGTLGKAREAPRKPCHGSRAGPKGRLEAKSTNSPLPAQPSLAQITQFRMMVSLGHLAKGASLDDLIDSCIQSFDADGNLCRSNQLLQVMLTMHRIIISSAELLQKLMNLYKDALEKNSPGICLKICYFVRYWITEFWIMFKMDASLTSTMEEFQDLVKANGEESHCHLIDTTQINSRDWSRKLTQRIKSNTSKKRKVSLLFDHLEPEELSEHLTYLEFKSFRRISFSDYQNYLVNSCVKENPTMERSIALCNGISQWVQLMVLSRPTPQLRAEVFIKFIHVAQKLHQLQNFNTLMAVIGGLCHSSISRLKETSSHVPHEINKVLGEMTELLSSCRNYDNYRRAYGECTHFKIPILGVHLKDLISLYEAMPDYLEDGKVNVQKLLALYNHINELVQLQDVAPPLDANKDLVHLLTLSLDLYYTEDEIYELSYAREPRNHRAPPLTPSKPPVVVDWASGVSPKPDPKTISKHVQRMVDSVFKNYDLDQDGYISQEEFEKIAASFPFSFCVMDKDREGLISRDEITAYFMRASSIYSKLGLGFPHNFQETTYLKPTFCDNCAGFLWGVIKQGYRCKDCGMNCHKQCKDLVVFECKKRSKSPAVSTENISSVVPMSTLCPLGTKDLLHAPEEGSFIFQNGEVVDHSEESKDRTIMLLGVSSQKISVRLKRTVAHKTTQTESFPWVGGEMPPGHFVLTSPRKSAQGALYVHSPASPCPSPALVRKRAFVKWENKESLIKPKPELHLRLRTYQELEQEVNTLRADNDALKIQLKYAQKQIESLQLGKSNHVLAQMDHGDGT
In words: Binding affinity against RAS guanyl releasing protein using [3H]- PDBu as the labeled ligand.

Sequence of Protein kinase C delta type (P28867 whole entry, the tested form may be a part): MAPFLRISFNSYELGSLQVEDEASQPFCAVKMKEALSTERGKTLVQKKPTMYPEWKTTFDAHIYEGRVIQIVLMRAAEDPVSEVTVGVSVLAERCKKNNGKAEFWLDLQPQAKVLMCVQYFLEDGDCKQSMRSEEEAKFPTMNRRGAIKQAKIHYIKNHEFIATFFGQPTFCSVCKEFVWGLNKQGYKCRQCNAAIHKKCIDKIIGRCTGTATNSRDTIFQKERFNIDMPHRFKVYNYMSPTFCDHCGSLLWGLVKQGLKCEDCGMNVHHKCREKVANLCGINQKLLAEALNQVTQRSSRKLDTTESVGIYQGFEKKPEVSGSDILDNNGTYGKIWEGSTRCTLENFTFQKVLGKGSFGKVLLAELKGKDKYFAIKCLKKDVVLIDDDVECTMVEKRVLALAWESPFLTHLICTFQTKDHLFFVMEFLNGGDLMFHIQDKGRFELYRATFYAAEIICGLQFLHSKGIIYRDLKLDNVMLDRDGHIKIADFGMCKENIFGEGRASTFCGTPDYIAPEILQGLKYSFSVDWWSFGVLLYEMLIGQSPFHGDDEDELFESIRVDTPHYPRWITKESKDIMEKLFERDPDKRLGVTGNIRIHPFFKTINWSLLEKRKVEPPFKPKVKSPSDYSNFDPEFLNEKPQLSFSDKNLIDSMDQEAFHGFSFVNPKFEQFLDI

One may read the Ki as a measure of affinity in units of concentration, obtained from inhibition or displacement. A higher Ki goes with lower affinity. As for `CCCCCCCCc1ccc2c3c(c[nH]c13)C[C@@H](CO)NC(=O)[C@H](C(C)C)N2C`, the inhibitory constant (Ki) in assay [1] stood at 0.1 nM; in assay [2], 0.85 nM.

On to `CCCCCCCCC#Cc1ccc2c(c1)C[C@@H](CO)NC(=O)[C@H](C(C)C)N2C`, for which the inhibition constant Ki was 10.7 nM in assay [1] and 6.15 nM in assay [2].

Take `CCCCCCCCC#Cc1ccc2c(c1OC)C[C@@H](CO)NC(=O)[C@H](C(C)C)N2C`: the Ki in assay [1] was 35.1 nM; in assay [2] it was 13.9 nM.

For the compound `CC(C)[C@H]1C(=O)N[C@H](CO)Cc2c[nH]c3cccc(c23)N1C` [INDOLACTUM], the affinity in assay [2] corresponds to a Ki of 2.54 nM.
